Laboratory results as given in publication PMC3362575, “Synthesis and Biological Evaluation of Phenanthrenes as Cytotoxic Agents with Pharmacophore Modeling and ChemGPS-NP Prediction as Topo II Inhibitors” (PLoS ONE, 2012).
Converted amounts (≈) assume the structure as drawn.

How the values were obtained:
Hep3B = assay: MTT cytotoxicity assay, Hep3B; type: cell-based, human; conditions: Homo sapiens, Hep3B
Protocol: (§1) The cytotoxic assay of 11 naturally occurring and 19 synthesized phenanthrenes was carried out on a diverse set of human liver (HepG2 and Hep3B), oral (Ca9-22), lung (A549) and breast (MEA-MB-231 and MCF7) cancer cell lines, and a human fetal lung fibroblast (MRC-5) cell line (Tables 1 and 2).
(§2) Compounds were tested against human liver (HepG2 and Hep3B), oral (Ca9-22), lung (A549), breast (MEA-MB-231 and MCF7) cancer cell lines, and the human fetal lung fibroblast (MRC-5) cell line using an established colorimetric MTT assay protocol. The absorbance was measured at 550 nm using a microplate reader. The IC50 is the concentration of agent that reduced cell growth by 50% under the experimental conditions.

HepG2 = assay: MTT cytotoxicity assay, HepG2; type: cell-based, human; conditions: Homo sapiens
Protocol: as §1, §2

Ca9-22 = assay: MTT cytotoxicity assay, Ca9-22; type: cell-based, human; conditions: Homo sapiens
Protocol: as §1, §2

MCF-7 = assay: MTT cytotoxicity assay, MCF-7; type: cell-based, human; conditions: Homo sapiens; for IC50: MTT; for MCF-7 activity class (from IC50): MCF7, Table S3, read-out: Scale Exptl. (MCF-7 activity class)
Protocol: as §1, §2
The pharmacophore modeling with Catalyst HypoGen was performed via Discovery Studio 2.1 (Accelrys, San Diego, CA, USA). Twenty-nine phenanthrene derivatives were collected from the natural plant, C. arisanensis, and from chemical synthesis (Figure 2). Cytotoxicity against MCF-7 cells was determined by the MTT assay and the concentration (µg/mL) of test compound which inhibited 50% of the cancer cells (IC50) was used in the generation of the pharmacophore model. An IC50 value of >20 µg/mL was defined as 20 µg/mL. All experimental IC50 values spanned about 2–3 orders of magnitude from 0.09 to 20 µg/mL. The 2D/3D structures of compounds were generated using ChemBioOffice 2008 (Cambridge Scientic Computing, Cambridge, Massachusetts, USA) and then optimized in a Dreiding force field. The conformational ensemble of each compound was generated using the best conformational analysis method based on a CHARMM force field with a 20 kcal/mol energy threshold above the global minimum. A maximum limit of 255 conformations was used to cover maximum conformational space. The best 3D arrangements of chemical functionalities should explain the activity variations among the 29 compounds. Thirty runs with different parameters were performed for the best pharmacophore hypothesis. Four chemical features, including hydrogen-bond acceptor (HBA), hydrogen-bond donor (HBD), hydrophobic (HYD), and aromatic ring (AR) features, were also tested during the building of pharmacophore hypotheses (Table S1; Text S1). The best hypotheses were selected via a correlation and a cost analysis in Catalyst HypoGen.

MRC-5 = assay: MTT cytotoxicity assay, MRC-5 fetal lung fibroblast; type: cell-based, human; conditions: Homo sapiens, normal fetal lung fibroblast
Protocol: as §1, §2

MDA-MB-231 = assay: MTT cytotoxicity assay, MDA-MB-231; type: cell-based, human; conditions: Homo sapiens
Protocol: as §1, §2

A549 = assay: MTT cytotoxicity assay, A549; type: cell-based, human; conditions: Homo sapiens
Protocol: as §1, §2

human cancer cell lines = assay: MTT cytotoxicity assay, ranges over the cancer cell line panel; type: cell-based
Protocol: as §1, §2

[1] = Table 2, synthesized phenanthrenes
[2] = HepG2, Table 2, synthesized phenanthrenes
[3] = Ca9-22, Table 2, synthesized phenanthrenes
[4] = MCF7, Table 2, synthesized phenanthrenes
[5] = MRC5, Table 2, synthesized phenanthrenes
[6] = MDA-MB-231, Table 2, synthesized phenanthrenes
[7] = A549, Table 2, synthesized phenanthrenes

Row | SMILES | IC50 (Hep3B; [1]) | IC50 (HepG2; [2]) | IC50 (Ca9-22; [3]) | IC50 (MCF-7; [4]) | MCF-7 activity class (from IC50) (MCF-7) | IC50 (MRC-5; [5]) | IC50 (MDA-MB-231; [6]) | IC50 (A549; [7]) | activity against all human cancer cell lines (human cancer cell lines; all human cancer cell lines) | IC50 (human cancer cell lines; Homo sapiens, range over the cancer cell lines tested, read-out: IC50 against various / all human cancer cell lines) | IC50 (Hep3B; Table 1, natural phenanthrenes) | IC50 (HepG2; HepG2, Table 1, natural phenanthrenes) | IC50 (Ca9-22; Ca9-22, Table 1, natural phenanthrenes) | IC50 (MCF-7; MCF7, Table 1, natural phenanthrenes) | IC50 (MRC-5; MRC5, Table 1, natural phenanthrenes) | IC50 (MDA-MB-231; MDA-MB-231, Table 1, natural phenanthrenes) | IC50 (A549; A549, Table 1, natural phenanthrenes)
1 | COc1cc2ccc3c(OC)ccc(OC)c3c2c(OC)c1OC [Compound 3a, 1,4,5,6,7-Pentamethoxy-phenanthrene] | 15.55 ± 0.08 µg/mL (≈ 47.4 µM) | > 20 µg/mL | > 20 µg/mL | > 20 µg/mL | > 20 µg/mL | > 20 µg/mL | > 20 µg/mL | > 20 µg/mL |  |  |  |  |  |  |  |  | 
2 | COc1cc(OC)c2c(ccc3c(OC)ccc(OC)c32)c1 [Compound 3b, 1,4,5,7-Tetramethoxy-phenanthrene] | > 20 µg/mL | > 20 µg/mL | 18.44 ± 0.11 µg/mL (≈ 61.8 µM) | > 20 µg/mL | > 20 µg/mL | > 20 µg/mL | > 20 µg/mL | > 20 µg/mL |  |  |  |  |  |  |  |  | 
3 | COc1cc2ccc3c(c2c(OC)c1OC)C(=O)C=CC3=O [Compound 4a, 5,6,7-Trimethoxy-1,4-phenanthrenequinone] | 7.33 ± 0.03 µg/mL (≈ 24.6 µM) | 15.68 ± 0.01 µg/mL (≈ 52.6 µM) | 2.17 ± 0.01 µg/mL (≈ 7.27 µM) | 13.2 ± 0.38 µg/mL (≈ 44.2 µM) | 1 to 20 µg/mL | 11.9 ± 0.12 µg/mL (≈ 40 µM) | 4.6 ± 0.06 µg/mL (≈ 15.4 µM) | 15.94 ± 0.01 µg/mL (≈ 53.4 µM) |  |  |  |  |  |  |  |  | 
4 | COC1=CC(=O)c2ccc3cc(OC)cc(OC)c3c2C1=O [Compound 5b, 3,5,7-Trimethoxy-1,4-phenanthrenequinone] | 15.9 ± 0.21 µg/mL (≈ 53.5 µM) | 13 ± 0.21 µg/mL (≈ 43.5 µM) | 15.25 ± 0.05 µg/mL (≈ 51.1 µM) | 14.4 ± 0.28 µg/mL (≈ 48.3 µM) | 1 to 20 µg/mL | > 20 µg/mL | 19 ± 0.55 µg/mL (≈ 63.6 µM) | 15.7 ± 0.17 µg/mL (≈ 52.7 µM) | marginal activities |  |  |  |  |  |  |  | 
5 | COC1=CC(=O)c2ccc3c(-c4c(OC)c(OC)c(OC)c5c6c(ccc45)C(=O)C=C(OC)C6=O)c(OC)c(OC)c(OC)c3c2C1=O [Compound 5d, 3,5,6,7,3′,5′,6,7′-Octamethoxy-[8,8′]bi-1,4,1′,4′-phenanthrenequinone] | 6.66 ± 0.13 µg/mL (≈ 10.2 µM) | 1.49 ± 0.01 µg/mL (≈ 2.28 µM) | 4.36 ± 0.03 µg/mL (≈ 6.66 µM) | 13.78 ± 0.06 µg/mL (≈ 21.1 µM) | 1 to 20 µg/mL | > 20 µg/mL | 14.8 ± 0.25 µg/mL (≈ 22.5 µM) | 9.3 ± 0.48 µg/mL (≈ 14.2 µM) |  |  |  |  |  |  |  |  | 
6 | COC1=CC(=O)c2ccc3c(-c4c(OC)c(OC)c(OC)c5c6c(ccc45)C(=O)CC(OC)(OC)C6=O)c(OC)c(OC)c(OC)c3c2C1=O [Compound 5e, 3,5,6,7,3′,3′,5′,6,7′-nonamethoxy-2′3′-dihydro-[8,8′]bi-1,4,1′,4′-phenanthrenequinone] | 7.38 ± 0.02 µg/mL (≈ 10.7 µM) | 1.24 ± 0.08 µg/mL (≈ 1.81 µM) | 6.21 ± 0.12 µg/mL (≈ 9.04 µM) | 9.4 µg/mL (≈ 13.7 µM) | 1 to 20 µg/mL | 8.11 ± 0.25 µg/mL (≈ 11.8 µM) | 6.74 ± 0.05 µg/mL (≈ 9.82 µM) | 7.49 ± 0.07 µg/mL (≈ 10.9 µM) |  |  |  |  |  |  |  |  | 
7 | COC1=CC(=O)c2ccc3cc(OC)cc(O)c3c2C1=O [Compound 6b, 5-Hydroxy-3,7-dimethoxy-1,4-phenanthrenequinone] | 0.34 µg/mL (≈ 1.2 µM) | 0.23 ± 0.01 µg/mL (≈ 0.809 µM) | 0.68 µg/mL (≈ 2.39 µM) | 0.26 µg/mL (≈ 0.915 µM) |  | 2.14 ± 0.08 µg/mL (≈ 7.53 µM) | 1.06 ± 0.03 µg/mL (≈ 3.73 µM) | 0.99 ± 0.02 µg/mL (≈ 3.48 µM) |  | 0.08 to 1.66 µg/mL (≈ 0.281 to 5.84 µM) |  |  |  |  |  |  | 
8 | COc1cc2ccc3c(OC)ccc(OC)c3c2c(O)c1O [Compound 8a, 5,6-Dihydroxy-1,4,7-trimethoxy-phenanthrene] | 5.77 ± 0.63 µg/mL (≈ 19.2 µM) | 19.4 ± 0.56 µg/mL (≈ 64.5 µM) | 3.91 ± 0.07 µg/mL (≈ 13 µM) | 17 ± 0.42 µg/mL (≈ 56.6 µM) | 1 to 20 µg/mL | > 20 µg/mL | 15.6 ± 1.52 µg/mL (≈ 52 µM) | > 20 µg/mL |  |  |  |  |  |  |  |  | 
9 | COc1cc(OC)c2c(ccc3c(OC)ccc(O)c32)c1 [Compound 8b, 4-Hydroxy-1,5,7-trimethoxy-phenanthrene] | 6.93 ± 0.19 µg/mL (≈ 24.4 µM) | 10.1 ± 0.66 µg/mL (≈ 35.5 µM) | 12.1 ± 0.37 µg/mL (≈ 42.5 µM) | 19.31 ± 0.08 µg/mL (≈ 67.9 µM) | 1 to 20 µg/mL | > 20 µg/mL | > 20 µg/mL | 19.6 ± 0.22 µg/mL (≈ 68.9 µM) |  |  |  |  |  |  |  |  | 
10 | COc1cc2ccc3c(OC)ccc(OC)c3c2c(O)c1OC [Compound 9a, 5-hydroxy-1,4,6,7-tetramethoxy-phenanthrene] | > 20 µg/mL | > 20 µg/mL | > 20 µg/mL | > 20 µg/mL | > 20 µg/mL | > 20 µg/mL | > 20 µg/mL | > 20 µg/mL |  |  |  |  |  |  |  |  | 
11 | COc1cccc2c1C(=O)c1c(O)c3c(c(O)c1C2=O)C[C@@](O)(C(=O)CO)C[C@@H]3O[C@H]1C[C@H](N)[C@H](O)[C@H](C)O1 [Doxo, Doxorubicin, reference compound] | 0.42 ± 0.01 µg/mL (≈ 0.773 µM) |  | 0.14 ± 0.04 µg/mL (≈ 0.258 µM) | 0.35 ± 0.09 µg/mL (≈ 0.644 µM) |  |  | 1.12 ± 0.05 µg/mL (≈ 2.06 µM) | 0.63 ± 0.15 µg/mL (≈ 1.16 µM) |  |  | 0.49 µg/mL (≈ 0.902 µM) | 0.22 ± 0.04 µg/mL (≈ 0.405 µM) | 0.16 ± 0.02 µg/mL (≈ 0.294 µM) | 0.67 ± 0.03 µg/mL (≈ 1.23 µM) | 1.94 ± 0.02 µg/mL (≈ 3.57 µM) | 0.74 ± 0.01 µg/mL (≈ 1.36 µM) | 0.81 ± 0.04 µg/mL (≈ 1.49 µM)
